Source: US20110046482A1, “METHODS FOR REDUCING TOXICITIES ASSOCIATED WITH MEDICAL PROCEDURES EMPLOYING RADIOGRAPHIC CONTRAST AGENTS” (OREGON HEALTH & SCIENCE UNIVERSITY, priority 2006, published 2011)

Assays:
[1] = N-acetylcysteine dose escalation, IV at time 0, 4 and 8 hours, followed for two weeks
Procedure: Rats were given NAC IV at time 0, 4 hours, and 8 hours and were then followed for two weeks.

[2] = Effect of route of administration on biodistribution of radiolabelled NAC; type: in vivo; conditions: rats
Procedure: Radiolabelled NAC in combination with unlabeled NAC (140 mg/kg) was administered to rats with the following routes of infusion: IV; IA into the right carotid artery for brain infusion; aortic infusion (IA infusion via the left external carotid artery with left internal artery occlusion) to avoid brain infusion; and IA (right carotid) with osmotic Blood Brain Barrier Disruption (BBBD) to maximize delivery to the brain.

[3] = Blood/serum levels of NAC and thiols by HPLC after IV or PO NAC; type: in vivo
Procedure: NAC is known to enhance de novo glutathione synthesis, and may also impact levels of other thiols. […] In contrast to the IV results, the group given NAC 1200 mg/kg by the PO route had very low levels of serum NAC (0.12±0.12) at 15 min or 60 min after infusion.

[4] = Clearance of NAC, blood thiol concentration every 15 minutes by colorimetric kit; type: in vivo; conditions: rat, intravenous, other: IA into the descending aorta, IV or IA into the descending aorta, 140, 400, 1000 and 1200 mg/kg, all doses
Procedure: NAC was administered either IV or IA into the descending aorta, and blood samples were assessed for thiol concentration every 15 minutes using a colorimetric kit. The NAC doses tested were 140, 400, 1000, and 1200 mg/kg.

[5] = tested on: cellular apoptosis proteins; assay: NAC-mediated inhibition of cisplatin-induced apoptosis, Western Blot analysis; type: cell-based
Procedure: Thus, the ability of NAC to modulate cellular apoptosis proteins was evaluated by Western Blot analysis.

[6] = tested on: cisplatin-induced nephrotoxicity; assay: Cisplatin (10 mg/kg IP) nephrotoxicity model, BUN, creatinine and weight 3 days after treatment; type: in vivo; conditions: rats
Procedure: There are few animal models of contrast-induced nephropathy, and the reported models are not easily reproducible.
Rats were tested for renal toxicity 3 days after treatment by measuring serum concentrations of BUN and creatinine (CR).

[7] = tested on: cumulative cisplatin nephrotoxicity; assay: Multiple low dose cisplatin nephrotoxicity model; type: in vivo; conditions: rats
cisplatin nephrotoxicity = assay: Cisplatin nephrotoxicity after NAC IV, PO or IA in the descending aorta; type: in vivo; conditions: rats
Procedure: IV NAC was nephroprotective at a dose of 400 mg/kg but not at a lower dose of 50 mg/kg.

[8] = cisplatin 10 mg/kg IP + NAC 400 mg/kg IP
[9] = cisplatin 10 mg/kg IP + NAC 400 mg/kg PO

For CC(=O)N[C@@H](CS)C(=O)O [NAC, N-acetylcysteine], the safety/tolerability ([1]; rat, in vivo, iv, 1200 mg/kg) was “safe and well-tolerated”, the “weight loss and signs of toxicity” value ([1]; rat, in vivo, iv, 1200 mg/kg) was “no weight loss and no signs of toxicity” and the tolerability of infusions ([1]; rat, in vivo, iv, 1500 mg/kg) was “tolerated the infusions well”. The “loss of body weight” value ([1]; rats, NAC IV 1500 mg/kg×3 (0, 4, 8 hours), within 2-3 days of infusion) was 5%-10%, the radiolabel in brain ([2]; NAC 140 mg/kg, IA right carotid artery) was “high levels of radiolabel in the right cerebral hemisphere” and the “radiolabel in right cerebral hemisphere relative to IA without BBBD” value ([2]; NAC 140 mg/kg, IA right carotid with osmotic BBBD) was “doubled”. For the same compound, the “brain delivery of NAC” value ([2]; NAC 140 mg/kg, aortic infusion) was “negligible levels”, the delivery to kidney ([2]; NAC 140 mg/kg, aortic infusion) was “increased systemic delivery to kidney” and the “amount of NAC found in the brain” value ([2]; radiolabelled + unlabeled NAC 140 mg/kg, IV) was “negligible amounts”. For the same compound, the “blood level of NAC (mean)” value ([3]; IV 100 mg/kg) was 380 ± 160 µM, the “blood level of NAC (mean)” value ([3]; IV 400 mg/kg) was 2190 ± 190 µM and the “blood level of NAC (mean)” value ([3]; IV 1200 mg/kg) was 6220 ± 180 µM. The “serum concentration of metabolite oxidized NAC relative to NAC alone” value ([3]; IV, 15 min after administration) was “approximately double”, the “serum NAC level” value ([3]; PO 1200 mg/kg, at 15 min or 60 min after infusion) was 0.12 ± 0.12 mM and the half-life [4] was less than 15 min. The “protection against cisplatin cytotoxicity” value ([5]; NAC 8 hours after cisplatin) was “minimal”, the “effect on cytotoxic effects of cisplatin (apoptosis proteins)” value ([5]; NAC added concurrent with cisplatin or up to 2 hours after) was “reversed the cytotoxic effects of cisplatin” and the “protection against cisplatin cytotoxicity” value ([5]; NAC delayed more than 2 hours) was “protection was reduced”. The BUN [6, 8] was 131.8 ± 8.2 mg/dL, the “CR (creatinine)” value [6, 8] was 2.3±0.38 and the BUN ([6]; cisplatin 10 mg/kg IP + NAC 400 mg/kg IV, p<0.0001) was 26.33 ± 6.76 mg/dL. The “CR (creatinine)” value ([6]; cisplatin 10 mg/kg IP + NAC 400 mg/kg IV, p<0.0013) was 0.47±0.15, the BUN [6, 9] was 123.3 ± 8.2 mg/dL and the “CR (creatinine)” value [6, 9] was 1.77±0.21. The “percent weight loss over the test period versus the other groups” value ([6]; cisplatin + IV NAC, p<0.0001) was “significantly lower percent weight loss”, the protection against nephrotoxicity ([7]; NAC 800 mg/kg IP 30 minutes before each cisplatin treatment) was “no protective effect” and the protection against nephrotoxicity ([7]; NAC 800 mg/kg IV 30 minutes before each cisplatin treatment) was “protective against the cumulative nephrotoxicity”. For the same compound, the nephroprotection (cisplatin nephrotoxicity; NAC 50 mg/kg IA in the descending aorta) was “significant nephroprotection”, the nephroprotection (cisplatin nephrotoxicity; NAC 50 mg/kg IV) was “not nephroprotective” and the nephroprotection (cisplatin nephrotoxicity; NAC 400 mg/kg IV) was “nephroprotective”. The “protection against cisplatin nephrotoxicity” value (cisplatin nephrotoxicity; NAC 400 mg/kg PO via nasogastric tube, cisplatin 10 mg/m^2) was “not protective” and the “time to renal failure” value (cisplatin nephrotoxicity; NAC 400 mg/kg PO, cisplatin 10 mg/m^2) was no more than 3 days.
